Reference: patent publication EP4603105A1, “PHARMACEUTICAL COMPOSITION CONTAINING CYCLIC COMPOUND HAVING SELECTIVE KRAS INHIBITORY EFFECT AGAINST HRAS AND NRAS” (CHUGAI SEIYAKU KABUSHIKI KAISHA, priority 2022, dated 2024)
*1 amine or outer side, *2 acyl side, *3 side chain or, on linkers, in order; H or OH if unused. Where a SMILES comes first, the peptide text is derived from it. Bridges are numbered along the chain shown (N, C = ends). [ ]: non-standard residue; d: D form. The star is where a group is joined. hPhe(3-Cl-4-CF3) = N[C@@H](CCc1ccc(C(F)(F)F)c(Cl)c1)C(=O)O; NPrPhe(4-CF3) = CCCN[C@@H](Cc1ccc(C(F)(F)F)cc1)C(=O)O; X44 = Cc1ccc(C[C@@H](C(=O)[*:2])N(CC2CCC2)[*:1])cc1; NMeGly(cPent) = CN[C@H](C(=O)O)C1CCCC1; Aze(3S-Me) = C[C@H]1CN[C@@H]1C(=O)O; NMeD = CN[C@@H](CC(=O)O)C(=O)O; NMeL = CN[C@@H](CC(C)C)C(=O)O; Morpholide = C1CN(*)CCO1; NMeA = CN[C@@H](C)C(=O)O; Ac5c = NC1(C(=O)O)CCCC1; Sar = CNCC(=O)O

Key:
[1] = target: GDP-bound NRAS wild-type protein (Homo sapiens, UniProt P01111); assay: Binding to NRAS by surface plasmon resonance (SPR), KD and KD ratio to KRAS
Outline: (§1)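 Affinity is measured by surface plasmon resonance at 30°C against captured, GDP-loaded RAS carrying a biotinylated Avi tag. Compounds are titrated by single-cycle kinetics, and KD comes from a 1:1 fit.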

[2] = target: HRAS wild-type protein (Homo sapiens, UniProt P01112); assay: Binding to HRAS by surface plasmon resonance (SPR), KD and KD ratio to KRAS
Outline: as §1

[3] = tested on: human lung cancer strain NCI-H441; format: cell-based
Outline: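 Readout: […] after the ATP-based reagent. Compound: serial dilutions in dimethyl sulfoxide.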

[4] = ratio of KD for GDP-bound NRAS wild-type protein to KD for KRAS
[5] = ratio of KD for HRAS wild-type protein to KD for KRAS
[6] = ratio of the KD value with respect to GDP-bound NRAS wild-type protein to the KD value with respect to KRAS
[7] = ratio of the KD value with respect to HRAS wild-type protein to the KD value with respect to KRAS

HRAS wild-type protein, sequence (P01112 whole entry): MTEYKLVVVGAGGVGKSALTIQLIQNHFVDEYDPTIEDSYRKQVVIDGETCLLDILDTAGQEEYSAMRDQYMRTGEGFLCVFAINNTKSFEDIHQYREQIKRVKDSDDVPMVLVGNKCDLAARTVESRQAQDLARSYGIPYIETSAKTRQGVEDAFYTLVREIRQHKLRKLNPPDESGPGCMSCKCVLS
GDP-bound NRAS wild-type protein, sequence (P01111 whole entry): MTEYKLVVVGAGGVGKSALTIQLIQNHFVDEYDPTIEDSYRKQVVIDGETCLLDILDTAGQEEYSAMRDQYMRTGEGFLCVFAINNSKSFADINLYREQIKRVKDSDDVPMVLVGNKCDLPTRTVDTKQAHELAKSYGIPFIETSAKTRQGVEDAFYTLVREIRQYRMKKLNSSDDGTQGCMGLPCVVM

With CCO[C@@H]1C[C@H]2C(=O)NC3(CCC3)C(=O)N(C)[C@@H](C(CC)CC)C(=O)N3CCC[C@@H]3CC(=O)N(C)[C@@H](CC3CC3)C(=O)N[C@@H]([C@@H](C)CC)C(=O)N(C)CC(=O)N(C)[C@H]3C/C=C\CCN(C3=O)[C@@H](Cc3ccc(C(F)(F)F)cc3)C(=O)N(C)CC(=O)N[C@@H](CCc3cc(F)c(C(F)(F)F)c(F)c3)C(=O)N2C1 [PP1612] the “NRAS /KRAS” value ([1]; ratio of KD value for GDP-bound NRAS wild-type protein to KD value for KRAS (SPR)) was “B (a compound having 3 or more and less than 10 is denoted as B)”, the “HRAS /KRAS” value ([2]; ratio of KD value for HRAS wild-type protein to KD value for KRAS (SPR)) was “B (a compound having 3 or more and less than 10 is denoted as B)” and the IC50 [3] was 0.0619 µM.
CC[C@H](C)[C@@H]1NC(=O)[C@@H]2CCCc3ccc(cc3)C[C@@H](C(=O)N(C)CC(=O)N[C@@H](CCc3ccc(C(F)(F)F)c(OC)c3)C(=O)N3CC4(CC4)C[C@H]3C(=O)NC3(CC(C)(C)C3)C(=O)N(C)[C@@H](C3CCCC3)C(=O)N(C)[C@H](C(=O)N(C)CC)CC(=O)N2C)N2CC/C=C\C[C@@H](C2=O)N(C)C(=O)CN(C)C1=O [PP3087] was tested, and the “NRAS /KRAS” value [1, 4] was “A (a compound having 10 or more and less than 20 is denoted as A)”, the “HRAS /KRAS” value [2, 5] was “B (a compound having 3 or more and less than 10 is denoted as B)” and the IC50 [3] was 0.0069 µM.
In the case of CC[C@H](C)[C@@H]1NC(=O)[C@H](CC(C)C)N(C)C(=O)C[C@@H](C(=O)N2CCOCC2)N(C)C(=O)[C@H](C2CCCC2)N(C)C(=O)C2(CCCC2)NC(=O)[C@@H]2CCCN2C(=O)[C@H](CCc2ccc(C(F)(F)F)c(Cl)c2)NC(=O)CN(C)C(=O)[C@H](Cc2ccc(C)cc2)N(CC2CCC2)C(=O)CN(C)C(=O)CN(C)C1=O [PP0095] ([NMeL]I[Sar][Sar][X44][Sar][hPhe(3-Cl-4-CF3)]P[Ac5c][NMeGly(cPent)][NMeD]-Morpholide; lactam N-11), the “NRAS /KRAS” value [1, 4] is reported as “C (A compound having a KD ratio of 0.1 or more and less than 3 is denoted as C)”, the “HRAS /KRAS” value [2, 5] is reported as “C (A compound having a KD ratio of 0.1 or more and less than 3 is denoted as C)” and the IC50 [3] is reported as 0.0182 µM.
For CCO[C@@H]1C[C@H]2C(=O)NC3(CC(C)(C)C3)C(=O)N(C)[C@@H](C(CC)CC)C(=O)N(C)[C@H](C(=O)N(C)C)CC(=O)N(C)[C@@H](CC3CCC3)C(=O)N[C@@H]([C@@H](C)CC)C(=O)N(C)CC(=O)N(C)[C@H]3C/C=C\CCN(C3=O)[C@@H](Cc3ccc(C(F)(F)F)cc3)C(=O)N(C)CC(=O)N[C@@H](CCc3cc(F)c(C(F)(F)F)c(F)c3)C(=O)N2C1 [PP2133], the “NRAS /KRAS” value [1, 6] was “AA (a compound having 20 or more is denoted as AA)”, the “HRAS /KRAS” value [2, 7] was “A (a compound having 10 or more and less than 20 is denoted as A)” and the IC50 [3] was 0.0162 µM.
In the case of CCO[C@@H]1C[C@H]2C(=O)NC3(CCC3)C(=O)N(C)[C@@H](C3CCCC3)C(=O)N(C)[C@H](C(=O)N3CCOCC3)CC(=O)N(C)[C@@H](CCOC)C(=O)N[C@@H]([C@@H](C)CC)C(=O)N(C)CC(=O)N(C)[C@H]3CCCCN(C3=O)[C@@H](Cc3ccc(C(F)(F)F)cc3)C(=O)N(C)CC(=O)N[C@@H](CCc3cc(F)c(C(F)(F)F)c(F)c3)C(=O)N2C1 [PP0720], the “NRAS /KRAS” value [1, 6] is reported as “C (A compound having a KD ratio of 0.1 or more and less than 3 is denoted as C)”, the “HRAS /KRAS” value [2, 7] is reported as “B (a compound having 3 or more and less than 10 is denoted as B)” and the IC50 [3] is reported as 0.0137 µM.
In the case of CCCN1C(=O)[C@@H]2[C@@H](C)CN2C(=O)[C@H](C)N(C)C(=O)[C@H]([C@@H](C)CC)NC(=O)[C@H](CC(C)C)N(C)C(=O)C[C@@H](C(=O)N2CCOCC2)N(C)C(=O)[C@H](C2CCCC2)N(C)C(=O)C2(CCCC2)NC(=O)[C@@H]2CCCN2C(=O)[C@H](CCc2ccc(C(F)(F)F)c(Cl)c2)NC(=O)CN(C)C(=O)[C@@H]1Cc1ccc(C(F)(F)F)cc1 [PP0141] ([NMeL]I[NMeA][Aze(3S-Me)][NPrPhe(4-CF3)][Sar][hPhe(3-Cl-4-CF3)]P[Ac5c][NMeGly(cPent)][NMeD]-Morpholide; lactam N-11), the “NRAS /KRAS” value [1, 4] is reported as “C (A compound having a KD ratio of 0.1 or more and less than 3 is denoted as C)”, the “HRAS /KRAS” value [2, 5] is reported as “B (a compound having 3 or more and less than 10 is denoted as B)” and the IC50 [3] is reported as 0.0035 µM.
With CCO[C@@H]1C[C@H]2C(=O)NC3(CCC3)C(=O)N(C)[C@@H](C3CCCC3)C(=O)N(C)[C@H](C(=O)N(C)C)CC(=O)N(C)[C@@H](CC(C)C)C(=O)N[C@@H]([C@@H](C)CC)C(=O)N3CC[C@H]3C(=O)N(C)[C@H]3C[C@@H](C)CCN(C3=O)[C@@H](Cc3ccc(C(F)(F)F)cc3)C(=O)N(C)CC(=O)N[C@@H](CCc3cc(F)c(C(F)(F)F)c(F)c3)C(=O)N2C1 [PP1019] the “NRAS /KRAS” value [1, 4] was “C (A compound having a KD ratio of 0.1 or more and less than 3 is denoted as C)”, the “HRAS /KRAS” value [2, 5] was “B (a compound having 3 or more and less than 10 is denoted as B)” and the IC50 [3] was 0.0074 µM.
